System: antibody R674
Assay: Radioimmune assay: displacement of tritium labeled reactivation product from antibody R674
Assay type: binding, rabbit
Conditions: up to 10 μM (the highest concentration tested)
Procedure: Non-antibody-bound radioactive isotope was removed from the reaction mixture by its absorption onto dextran-coated activated charcoal. […] The activated charcoal was then suspended to 3% (w/v) in PBS dextran and allowed to stand overnight, washed once again in PBS dextran and resuspended to 3% (w/v) in PBS dextran and stored at 4° C. Immediately before use in the assay, the dextran-coated activated charcoal was diluted 10-fold in DULBECCO's PBS and 1 ml was added to each assay tube. […] The supernatant fluid was decanted into 9 ml of AQUASOL-2 scintillation fluid and radioactivity counted in a beta-counter. Each assay contains charcoal free controls, to which 1 ml PBS was added, for determination of total counts (BO), and antibody free controls for determination of non-specific binding. Percent specific binding was determined by subtracting the value for non-specific binding from the value of total antiserum binding and then dividing by the total radioactivity added.
Sensitivity of the antisera R674 (2nd bleed) was determined in the above RIA. The antiserum was diluted in PET/GEL buffer (1:12,000 final dilution in the 200 μl assay volume) as described above so that it binds 20-30% of the total radioactivity added. The same diluted stock was then used for all assay tubes within the same assay. […] The assay was set up on a competition basis. […]

SMILES | effect on displacement
N=C(N)NCCC[C@H](N)C(=O)O [arginine] | without effect
NC(N)=O [Urea] | without effect
